ChEMBL document CHEMBL1201862, “PubChem BioAssay data set” (2004)
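Assay format: 96-well plates, 48-hour exposure. GI50 is the concentration that inhibits growth by half.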 Activity calls are given as the source filed them. Rule as the data show it: active = GI50 up to about 1.1 µM and inactive = higher.

Experiments:
Assay in all cases: growth of human tumour cells (NCI), 48 h
NCI-H23 = test system: NCI-H23
MDA-MB-435 = test system: MDA-MB-435
MDA-N = test system: MDA-N
UACC-62 = test system: UACC-62
CAKI-1 = test system: CAKI-1
OVCAR-8 = test system: OVCAR-8
SR = test system: SR
PC-3 = test system: PC-3
ACHN = test system: ACHN
786-0 = test system: 786-0
RXF 393 = test system: RXF 393
CCRF-CEM = test system: CCRF-CEM
DU-145 = test system: DU-145
A498 = test system: A498
SN12C = test system: SN12C
IGROV-1 = test system: IGROV-1
SF-539 = test system: SF-539
KM12 = test system: KM12
HCC 2998 = test system: HCC 2998
SNB-19 = test system: SNB-19

Measured: GI50

Cc1ncc([N+](=O)[O-])n1CCNS(=O)(=O)CCCn1ccnc1[N+](=O)[O-]
inactive: NCI-H23 > 100 µM | MDA-MB-435 > 100 µM | MDA-N > 100 µM | UACC-62 > 100 µM | CAKI-1 > 100 µM | OVCAR-8 > 100 µM | SR > 100 µM | PC-3 > 100 µM | ACHN > 100 µM | 786-0 > 100 µM | RXF 393 > 100 µM | CCRF-CEM > 100 µM | DU-145 > 100 µM | A498 > 100 µM | SN12C > 100 µM | IGROV-1 > 100 µM | SF-539 > 100 µM | KM12 > 100 µM

CN(c1cn(C2CC[C@@H](CO)O2)c(=O)[nH]c1=O)C1CCCCC1 (stereo partly drawn)
inactive: NCI-H23 > 100 µM | MDA-MB-435 > 100 µM | MDA-N > 100 µM | UACC-62 > 100 µM | OVCAR-8 > 100 µM | HCC 2998 > 100 µM | SR > 100 µM | PC-3 > 100 µM | ACHN > 100 µM | 786-0 > 100 µM | RXF 393 > 100 µM | CCRF-CEM > 100 µM | DU-145 > 100 µM | A498 > 100 µM | SN12C > 100 µM | IGROV-1 > 100 µM | SF-539 > 100 µM | SNB-19 > 100 µM | KM12 > 100 µM

COC(=O)Cc1cccc2c1CCC2=O
inactive: NCI-H23 > 100 µM | MDA-MB-435 > 100 µM | MDA-N > 100 µM | UACC-62 > 100 µM | OVCAR-8 > 100 µM | HCC 2998 > 100 µM | SR > 100 µM | PC-3 > 100 µM | ACHN > 100 µM | 786-0 > 100 µM | RXF 393 > 100 µM | CCRF-CEM > 100 µM | DU-145 > 100 µM | A498 > 100 µM | SN12C > 100 µM | IGROV-1 > 100 µM | SF-539 > 100 µM | SNB-19 > 100 µM | KM12 > 100 µM

COC(=O)CCc1cc(OC)c2c(c1)[C@H](C(=O)OC)[C@@H](c1ccc(O)c(OC)c1)O2
inactive: NCI-H23 38.5 µM | MDA-MB-435 15.1 µM | MDA-N 17.7 µM | UACC-62 39.8 µM | OVCAR-8 78.2 µM | HCC 2998 21.4 µM | SR 1.43 µM | PC-3 91.8 µM | ACHN 86.5 µM | 786-0 46.3 µM | RXF 393 55.8 µM | CCRF-CEM 33.8 µM | DU-145 > 100 µM | A498 31.5 µM | SN12C 56.9 µM | IGROV-1 61.8 µM | SF-539 48.2 µM | SNB-19 51.9 µM | KM12 30.6 µM

Cc1ccc(C(=O)/C=C2\Nc3ccccc3S\C2=N\CS(=O)(=O)c2ccc(C)cc2)cc1
inactive: NCI-H23 > 10 µM | MDA-MB-435 > 10 µM | MDA-N > 10 µM | UACC-62 > 10 µM | CAKI-1 > 10 µM | OVCAR-8 > 10 µM | HCC 2998 > 10 µM | SR > 10 µM | PC-3 > 10 µM | ACHN > 10 µM | 786-0 > 10 µM | CCRF-CEM > 10 µM | DU-145 > 10 µM | SN12C > 10 µM | IGROV-1 > 10 µM | SF-539 > 10 µM | SNB-19 > 10 µM | KM12 > 10 µM

O=C1NC(Nc2ccccc2)=NC(C(F)(F)F)(C(F)(F)F)N1
inactive: NCI-H23 23.4 µM | MDA-MB-435 43 µM | MDA-N 25.1 µM | UACC-62 50.4 µM | OVCAR-8 40.2 µM | HCC 2998 46.7 µM | SR 40.1 µM | PC-3 20.5 µM | ACHN 35.1 µM | 786-0 39.1 µM | CCRF-CEM 48.6 µM | DU-145 35.9 µM | SN12C 36.6 µM | IGROV-1 54 µM | SF-539 74.5 µM | KM12 41.6 µM

COc1cc(C[S+]([O-])c2ccc(O)cc2)cc(OC)c1OC (stereo not drawn)
inactive: NCI-H23 > 100 µM | MDA-MB-435 > 100 µM | MDA-N > 100 µM | UACC-62 > 100 µM | CAKI-1 > 100 µM | OVCAR-8 > 100 µM | SR > 100 µM | PC-3 > 100 µM | ACHN > 100 µM | 786-0 > 100 µM | RXF 393 > 100 µM | CCRF-CEM > 100 µM | DU-145 > 100 µM | A498 > 100 µM | SN12C > 100 µM | IGROV-1 > 100 µM | SF-539 > 100 µM | SNB-19 > 100 µM | KM12 > 100 µM

COC(=O)/C=C/COCC1C2CCC(=O)C21 (stereo not drawn)
inactive: NCI-H23 > 100 µM | MDA-MB-435 > 100 µM | MDA-N > 100 µM | UACC-62 > 100 µM | CAKI-1 27.4 µM | OVCAR-8 > 100 µM | HCC 2998 > 100 µM | SR > 100 µM | PC-3 > 100 µM | ACHN > 100 µM | 786-0 > 100 µM | RXF 393 > 100 µM | CCRF-CEM > 100 µM | DU-145 > 100 µM | SN12C > 100 µM | IGROV-1 > 100 µM | SF-539 > 100 µM | SNB-19 > 100 µM | KM12 > 100 µM

O=C(O)CNC(=O)C(CSC(=O)OCC1c2ccccc2-c2ccccc21)NC(=O)CCC(NC(=O)OCC1c2ccccc2-c2ccccc21)C(=O)O (stereo not drawn)
inactive: NCI-H23 27 µM | MDA-MB-435 18.9 µM | MDA-N 28.1 µM | CAKI-1 4.57 µM | OVCAR-8 16.4 µM | HCC 2998 > 100 µM | SR 3.49 µM | PC-3 15.5 µM | ACHN 18.4 µM | 786-0 3.05 µM | RXF 393 18.7 µM | CCRF-CEM 20.2 µM | DU-145 15.3 µM | SN12C 16.5 µM | IGROV-1 13.1 µM | SF-539 16.3 µM | SNB-19 > 100 µM

CC(=O)Nc1ccc(CNc2cc(=O)n(C)c(=O)[nH]2)cc1
inactive: NCI-H23 > 100 µM | MDA-MB-435 > 100 µM | MDA-N > 100 µM | UACC-62 > 100 µM | CAKI-1 > 100 µM | OVCAR-8 > 100 µM | HCC 2998 > 100 µM | SR > 100 µM | PC-3 > 100 µM | ACHN > 100 µM | 786-0 > 100 µM | RXF 393 > 100 µM | CCRF-CEM > 100 µM | DU-145 > 100 µM | SN12C > 100 µM | IGROV-1 > 100 µM | SF-539 > 100 µM | SNB-19 > 100 µM | KM12 > 100 µM

CCCC(=O)NC1=C(NCC)C(=O)c2ccccc2C1=O
inactive: NCI-H23 > 100 µM | MDA-MB-435 25.2 µM | MDA-N 20.8 µM | UACC-62 > 100 µM | HCC 2998 86.3 µM | SR 60.5 µM | PC-3 40.9 µM | ACHN > 100 µM | 786-0 > 100 µM | RXF 393 48.3 µM | CCRF-CEM > 100 µM | DU-145 > 100 µM | SN12C > 100 µM | IGROV-1 > 100 µM | SF-539 > 100 µM | SNB-19 > 100 µM | KM12 52.4 µM

CC(=O)NC(C)(C)C1CCC(C)=C(c2ccccc2)C1 (stereo not drawn)
inactive: NCI-H23 > 100 µM | MDA-MB-435 > 100 µM | MDA-N > 100 µM | UACC-62 > 100 µM | OVCAR-8 > 100 µM | HCC 2998 > 100 µM | SR > 100 µM | PC-3 > 100 µM | 786-0 > 100 µM | CCRF-CEM 96.8 µM | DU-145 > 100 µM | SN12C > 100 µM | IGROV-1 > 100 µM | SF-539 > 100 µM | SNB-19 > 100 µM | KM12 > 100 µM

COc1cc(OC)c2c(=O)c(OC)c(-c3ccc4c(c3)OCO4)oc2c1
inactive: NCI-H23 23.2 µM | MDA-MB-435 > 100 µM | MDA-N > 100 µM | UACC-62 26 µM | CAKI-1 21 µM | OVCAR-8 28.6 µM | HCC 2998 > 100 µM | PC-3 84.7 µM | ACHN 33.6 µM | 786-0 36 µM | RXF 393 28.1 µM | CCRF-CEM > 100 µM | DU-145 48.5 µM | A498 15.6 µM | SN12C 59.7 µM | IGROV-1 22.1 µM | SF-539 18.1 µM | SNB-19 22 µM | KM12 > 100 µM

NCC1CCN(c2nc3ccccc3c3c2CCCC3)CC1
inactive: NCI-H23 15.5 µM | MDA-MB-435 2.41 µM | MDA-N 2.71 µM | UACC-62 2.29 µM | CAKI-1 8.61 µM | OVCAR-8 17.2 µM | HCC 2998 1.9 µM | PC-3 8.93 µM | ACHN 12.6 µM | 786-0 4.23 µM | RXF 393 2.75 µM | CCRF-CEM 2.87 µM | DU-145 13.1 µM | A498 12.4 µM | SN12C 9.55 µM | IGROV-1 8.85 µM | SF-539 4.65 µM | SNB-19 10.4 µM | KM12 4.28 µM

CCOC(=O)NC(NC(C)CC)(C(F)(F)F)C(F)(F)F (stereo not drawn)
inactive: NCI-H23 > 100 µM | MDA-MB-435 > 100 µM | MDA-N > 100 µM | UACC-62 > 100 µM | CAKI-1 > 100 µM | OVCAR-8 > 100 µM | SR > 100 µM | PC-3 > 100 µM | ACHN > 100 µM | 786-0 > 100 µM | RXF 393 > 100 µM | CCRF-CEM > 100 µM | DU-145 > 100 µM | A498 > 100 µM | SN12C > 100 µM | IGROV-1 > 100 µM | SF-539 > 100 µM | SNB-19 > 100 µM | KM12 > 100 µM
